From patent publication US20230174576A1, “BETA-STRAND BRIDGE PEPTIDE” (Xeno-Interface Inc., priority 2020, published 2023)

Tested on: HeLa cells
Test: Cell membrane permeability assay, evaluation by FACS
Assay type: cell-based
Conditions: FITC-labeled peptide 0.1 μM, 37° C.
Protocol: HeLa cells are grown in DMEM containing 10% fetal bovine serum and penicillin/streptomycin, treated with trypsin, washed twice with medium using a centrifuge, and seeded into multi-well plates for overnight incubation. FITC-labeled peptides are added to the cells at 37° C. and the cells are incubated at 37° C. The cells are washed twice with medium and twice with PBS, and treated with trypsin at 37° C. HeLa cells are collected and centrifuged, washed twice with medium and twice with PBS, and PBS containing propidium iodide is added to the cell. The cell membrane permeability of the peptides is quantitatively analyzed by FACS.
(Evaluation of Cell Membrane Permeability by FACS)

Mean: FITC-A: 3192
Substance: Ac—W I F [K] H R—NH2 [WT]
